Converted amounts (≈) assume the structure as drawn. “And” between values parts separate entries of the source, which are not always exact repeats. Equal values may be shown once. Read-outs that look alike come from different tables or passages of the source.
Columns and labels:
SARS-CoV-2 3CL^pro = SARS-CoV-2 3CL^pro (Severe acute respiratory syndrome coronavirus 2, UniProt P0DTD1); test: biochemical
SARS-CoV-2 Delta strain = test: microbe, parasite or virus in culture; assay type: cell-based
in vitro [1] = details: African green monkey
in vivo [2] = details: male, C57BL/6J, mouse, po
[3] = tested on: human peripheral blood mononuclear cells (PBMCs); test: cells; details: PBMC
[4] = both, cynomolgus monkey, in vivo
CYP enzymes (all tested) = test: in vitro; details: human
SARS-CoV-2 WIV04 strain = test: microbe, parasite or virus in culture; details: Severe acute respiratory syndrome coronavirus 2, Vero C1008, read-out: EC50^CP
CYP3A4/5 = test: in vitro; details: human, microsomes
[5] = tested on: human peripheral blood mononuclear cells (PBMCs)
in vitro [6] = details: monkey, plasma
in vivo [7] = details: both, cynomolgus monkey
[8] = tested on: SARS-CoV-2 Omicron strain; test: microbe, parasite or virus in culture
in vivo [9] = details: both, SD, rat
in vitro [10] = details: mouse, plasma
[11] = tested on: human primary hepatocytes; details: human
[12] = male, C57BL/6J, in vivo
[13] = both, cynomolgus monkey, in vivo; remark: listed apart in the source
[14] = tested on: SARS-CoV-2 Omicron strain
in vivo [15] = details: both, Sprague-Dawley, rat
[16] = tested on: human primary hepatocytes; test: cells; details: Hepatocyte
in vitro [17] = details: rat, plasma
in vivo [18] = details: both, cynomolgus monkey; remark: listed apart in the source
[19] = male, C57BL/6J, mouse, in vivo
[20] = tested on: Chinese hamster lung (CHL) cells
[21] = both, SD, rat, in vivo
[22] = Severe acute respiratory syndrome coronavirus 2, Vero C1008, read-out: EC50 (nM) Mean
[23] = concentration 500.00 nM, read-out: inhibition ratio (%)
[24] = 500.00 nM, read-out: inhibition ratio (%)
[25] = 15.63 nM, read-out: inhibition ratio (%)
[26] = 31.25 nM, read-out: inhibition ratio (%)

CC(C)(C)NC(=O)N[C@H](C(=O)N1C[C@@H](Sc2ccccc2)C[C@H]1C(=O)N[C@H](C#N)C[C@@H]1CCNC1=O)C(C)(C)C [compound 6]
IC50 (SARS-CoV-2 3CL^pro; IC50): 7210 nM | IC50 (SARS-CoV-2 3CL^pro; IC50 (nM)): 6060 nM and 8400 nM and 7190 nM | inhibition at 3.125 µM (SARS-CoV-2 3CL^pro; concentration 3125.00 nM, read-out: inhibition ratio (%)): 22.4% | inhibition at 50 µM (SARS-CoV-2 3CL^pro; concentration 50000.00 nM, read-out: inhibition ratio (%)): 90.5% | inhibition at 100 µM (SARS-CoV-2 3CL^pro; concentration 100000.00 nM, read-out: inhibition ratio (%)): 97.7% | inhibition at 25 µM (SARS-CoV-2 3CL^pro; concentration […], read-out: inhibition ratio (%)): 81.8%

CC(C)(C)NC(=O)N[C@H](C(=O)N1CC2(C[C@H]1C(=O)N[C@H](C#N)C[C@@H]1CCNC1=O)SCCS2)C(C)(C)C [compound 7]
EC50 (SARS-CoV-2 Delta strain; [22]): 30000 nM | EC50 (SARS-CoV-2 Delta strain; read-out: EC50^CP): 220 nM | CC50 (in vitro [1]): > 500000 nM | inhibition at 0.01563 µM (SARS-CoV-2 3CL^pro; concentration 15.63 nM, read-out: inhibition ratio (%)): 28.1% | inhibition at 0.5 µM (SARS-CoV-2 3CL^pro; [23]): 97.8%

CC(C)(C)NC(=O)N[C@H](C(=O)N1C[C@@H]2CCC[C@@H]2[C@H]1C(=O)N[C@H](C#N)C[C@@H]1CCNC1=O)C(C)(C)C [compound 8]
IC50 (SARS-CoV-2 3CL^pro; IC50): 50 nM | IC50 (SARS-CoV-2 3CL^pro; IC50 (nM)): 49.2 nM and 55.8 nM and 45.8 nM | inhibition at 0.03125 µM (SARS-CoV-2 3CL^pro; concentration 31.25 nM, read-out: inhibition ratio (%)): 37.9% | inhibition at 0.5 µM (SARS-CoV-2 3CL^pro; [23]): 93.2%

CC(C)(C)[C@H](NC(=O)C(F)(F)F)C(=O)N1CC2(C[C@H]1C(=O)N[C@H](C#N)C[C@@H]1CCNC1=O)SCCS2 [compound 9, simnotrelvir]
Cmax (in vivo [2]): 49300 ng/mL | Cmax (in vivo [2]; 50 mg/kg): 18500 ng/mL | IC50 [3]: > 150000 nM | tolerability in two-week toxicity study [4]: well tolerated | IC50 (CYP enzymes (all tested)): ≥ 30000 nM | EC50 (SARS-CoV-2 WIV04 strain): 26 nM | IC50 (CYP3A4/5): 30000 nM | activity at 0.1 µM (CYP3A4/5; […]): 104% | activity at 1 µM (CYP3A4/5; […]): 101% | activity at 3.33 µM (CYP3A4/5; […]): 95.4% | activity at 10 µM (CYP3A4/5; […], 10 μM): 73.9% | activity at 33.3 µM (CYP3A4/5; […], 33.3 μM): 46.6% | activity at 100 µM (CYP3A4/5; […], 100 μM): 21.8% | IC50 or CC50: PBMC [5]: > 150000 nM | toxicity to human PBMCs [5]: no toxicity was observed | fraction unbound (in vitro [6]): 0.193 | Cmax (in vivo [7]; 600 mg/kg/day): 26400 ng/mL | NOAEL (in vivo [7]; po): 600 mg/kg/day | EC50 ([8]; Severe acute respiratory syndrome coronavirus 2, Vero C1008): 38.7 nM | EC50 ([8]; Severe acute respiratory syndrome coronavirus 2, Vero C1008, read-out: EC50^CP): 43 nM | Cmax (in vivo [9]; 1000 mg/kg/day): 17000 ng/mL | NOAEL (in vivo [9]; po): 1000 mg/kg/day | fraction unbound (in vitro [10]): 0.217 | IC50 or CC50: PHHs [11]: > 150000 nM | toxicity to human hepatocytes [11]: no toxicity was observed | EC90^total (SARS-CoV-2 Delta strain): 0.906 µg/mL (≈ 1.65 µM) | EC90 (SARS-CoV-2 Delta strain; Severe acute respiratory syndrome coronavirus 2, Vero C1008, read-out: EC90^total): 0.523 µg/mL | EC50 (SARS-CoV-2 Delta strain; read-out: EC50^CP): 34 nM | EC90 (SARS-CoV-2 Delta strain; read-out: EC90 (nM), single independent experiment): 290 nM and 382 nM | exposure in the mouse brains [12]: moderate simnotrelvir exposure | time brain concentration covers EC50^total ([12]; mouse): > 8 h | time brain concentration covers EC90^total ([12]; mouse): more than 2 h | inhibition of 413 human kinases (413 human kinases): no significant inhibitory activities | calculated metabolic contribution of CYP3A (CYP3A): 87% | increase of AUC0-∞ by ritonavir [13]: 9.6 fold | increase of Cmax by ritonavir [13]: 3.9 fold | EC50 [14]: 44.9 nM | bioavailability (in vivo [15]; 15 mg/kg): 35.3% | half-life (in vivo [15]; 15 mg/kg): 0.45 h | Vd (in vivo [15]; iv, 15 mg/kg): 1.36 L/kg | clearance (in vivo [15]; iv, 15 mg/kg): 59.3 mL/min/kg | AUC(0-inf) (in vivo [15]; po): 9000 ng·h/mL | AUC(0-t) (in vivo [15]; po): 8920 ng·h/mL | Cmax (in vivo [15]; po): 2760 ng/mL | half-life (in vivo [15]; po): 1.99 h | AUC(0-inf) (in vivo [15]; po, 15 mg/kg): 1730 ng·h/mL | AUC(0-t) (in vivo [15]; po, 15 mg/kg): 1700 ng·h/mL | Cmax (in vivo [15]; po, 15 mg/kg): 1580 ng/mL | half-life (in vivo [15]; po, 15 mg/kg): 1.29 h | IC50 [16]: > 150000 nM | fraction unbound (in vitro [17]): 0.334 | bioavailability (in vivo [18]; 5 mg/kg): 41.9% | half-life (in vivo [18]; 5 mg/kg): 1.7 h | Vd (in vivo [18]; iv, 5 mg/kg): 1.5 L/kg | clearance (in vivo [18]; iv, 5 mg/kg): 20.7 mL/min/kg | AUC(0-inf) (in vivo [18]; po): 17200 ng·h/mL | AUC(0-t) (in vivo [18]; po): 17000 ng·h/mL | Cmax (in vivo [18]; po): 2440 ng/mL | half-life (in vivo [18]; po): 2.38 h | AUC(0-inf) (in vivo [18]; po, 5 mg/kg): 1790 ng·h/mL | AUC(0-t) (in vivo [18]; po, 5 mg/kg): 1660 ng·h/mL | Cmax (in vivo [18]; po, 5 mg/kg): 625 ng/mL | half-life (in vivo [18]; po, 5 mg/kg): 5.63 h | time plasma concentration maintained above EC90^total [19]: 24 h | chromosome aberration test (CA) result [20]: negative | tolerability in two-week toxicity study [21]: well tolerated

CC(C)(C)[C@H](NC(=O)C1(F)CC1)C(=O)N1CC2(C[C@H]1C(=O)N[C@H](C#N)C[C@@H]1CCNC1=O)SCCS2 [compound 10]
EC50 (SARS-CoV-2 Delta strain; [22]): 1100 nM | CC50 (in vitro [1]): > 500000 nM | inhibition at 0.5 µM (SARS-CoV-2 3CL^pro; [24]): 94%

CC(C)(C)[C@H](NS(C)(=O)=O)C(=O)N1CC2(C[C@H]1C(=O)N[C@H](C#N)C[C@@H]1CCNC1=O)SCCS2 [compound 11]
EC50 (SARS-CoV-2 Delta strain; [22]): 10400 nM | CC50 (in vitro [1]): > 500000 nM | inhibition at 0.01563 µM (SARS-CoV-2 3CL^pro; [25]): 54% | inhibition at 0.03125 µM (SARS-CoV-2 3CL^pro; [26]): 73.9% | inhibition at 0.5 µM (SARS-CoV-2 3CL^pro; [24]): 94.6%

CC(C)(C)[C@H](NS(=O)(=O)C1CC1)C(=O)N1CC2(C[C@H]1C(=O)N[C@H](C#N)C[C@@H]1CCNC1=O)SCCS2 [compound 12]
EC50 (SARS-CoV-2 Delta strain; [22]): 10700 nM | CC50 (in vitro [1]): > 500000 nM | inhibition at 0.01563 µM (SARS-CoV-2 3CL^pro; [25]): 72.8% | inhibition at 0.03125 µM (SARS-CoV-2 3CL^pro; [26]): 86.6% | inhibition at 0.5 µM (SARS-CoV-2 3CL^pro; [24]): 97.9%

CC(C)(C)[C@H](NC(=O)C(F)(F)F)C(=O)N1C[C@H]2[C@@H]([C@H]1C(=O)N[C@H](C#N)C[C@@H]1CCNC1=O)C2(C)C [nirmatrelvir, reference compound]
EC50 (SARS-CoV-2 Delta strain; read-out: EC50^CP): 30 nM

— PMC10575921 (Nature Communications, 2023)
